Key:
Assay type in all cases: physicochemical
[1] = Aerosol particle size distribution by cascade impactor (MOUDI) of aerosol from heated capillary passage; settings: carrier 20 volume % ethanol in water
[2] = Visual inspection of deposited aerosol particles (cascade impactor plates); settings: carrier containing varying percentages of ethanol in water
Excerpt: The average MMAD of the aerosol particles was 0.66 microns.
Albuterol aerosol particles produced using a carrier containing varying percentages of ethanol in water as described above were visually analyzed and determined to be dry aerosols.

[3] = Observation of breakdown products / degradation during aerosol generation; settings: carrier including ethanol; summary of tests
Excerpt: Clogging of the capillary size passage of the aerosol generating device was not observed during these tests.

| average MMAD of the albuterol aerosol particles [1] | nature of aerosol by visual analysis [2] | degradation [3] | SMILES |
| --- | --- | --- | --- |
| about 3 microns | dry aerosols | – | CC(C)(C)NCC(O)c1ccc(O)c(CO)c1 (stereo not drawn) [albuterol] |
| – | – | no observable degradation | CCCC1O[C@@H]2C[C@H]3[C@@H]4CCC5=CC(=O)C=C[C@]5(C)[C@H]4[C@@H](O)C[C@]3(C)[C@]2(C(=O)CO)O1 (stereo partly drawn) [budesonide] |
